Experimental data from paper PMC4761914, “Improvement of pyrazolo[3,4-d]pyrimidines pharmacokinetic properties: nanosystem approaches for drug delivery” (Scientific Reports, 2016).
Like-named read-outs stand apart in the source and are kept apart here.

Experiments:
[1] = Entrapment efficiency by HPLC-UV-MS after disruption of nanoparticles; format: physicochemical; details: compound encapsulated in albumin nanoparticles
Experimental: The albumin nanoparticles were prepared by mixing 100 μL of compound solution in EtOH (1 mg/mL) with 900 μL of HSA solution in PBS (pH 7.4, 25 mM) (5 mg/mL)[52]. Cysteine was added up to a final concentration of 5 mg/mL, and the resulting solution was kept at 37 °C, for 45 min. The excess of cysteine was eliminated by dialysis using a cellulose membrane (capacity 60 mL/ft, cut-off 14 kDa, diameter 16 mm, width 25mm). D,L-glyceraldehyde was added to this solution, to a final concentration of 5 μM[53]. The sample was then filtered through a nylon syringe filter with pores of 0.2 μm (Acrodisc 25 mm Syringe Filter) to obtain a sterile solution of the drug-albumin nanoparticles. The concentration of the compound in the final sample was determined by HPLC-UV-MS (HPLC-UV-MS method in the supporting material), after denaturation of the protein by acetonitrile and centrifugation (4500 rpm, 15 min, 4 °C).
The method developed by A.D. Bangham, namely thin layer evaporation, was used for the preparation of LP-1, LP-2, LP-3 and LP-4. Lipids DPPC, Chol and MPEG-2000-DPPE Na (molar ratio 20:10:1) were dissolved in a mixture of CHCl3:MeOH = 3:1 (3 mL, round-bottomed flask). A 1 mM solution of each compound (1, 2, 3, 4) in CHCl3:MeOH = 3:1 was prepared. […] The drug concentration was determined after disruption of liposomes by treatment with ethanol at 40 °C (1:1 = v/v). The compound was extracted and quantified by HPLC-UV-MS (HPLC-UV-MS method in the supporting material). […]
E.E.%c NDd NDd NDd NDd NDd NDd NDd NDd NDd NDd NDd aCalculated on the basis of the total amount of compound dissolved in the organic solvent; bat 37 °C; c at 45°C. dND: compound not detected after filtration 0.2 µm syringe filter. […]
The percentage of entrapment efficacy was calculated with the following equation: […]
where, Fi is the concentration of compound determined in the nano-preparation (evaluated by HPLC-UV-MS, after disruption of nanoparticles) and Ft is the theoretical final concentration (Calculated on the basis of the total amount of compound dissolved in the organic solvent). […]

SH-SY5Y NB cells = experiment: Antiproliferative activity / cytotoxicity, Trypan blue assay; format: cell-based; details: Homo sapiens
Experimental: In vitro experiments were carried out using the human NB cell line SH-SY5Y. Cells were purchased from American Type Culture Collection (ATCC, Manassas, VA, USA) and were cultured in DMEM/F12 1:1 medium supplemented with 10% FBS, 2 mM L-glutamine and 10000 units/mL Penicillin/Streptomycin at 37 °C in 5% CO2 atmosphere. In order to determine the antiproliferative effect of drugs (1–4) and nanosystems, SH-SY5Y cells were seeded at 10^5 cells/well density and treated with albumin (PBS solution, pH 7.4) or empty liposomes (0.9% NaCl solution, pH 7.4), compounds encapsulated with albumin (PBS solution, pH 7.4) or liposomes LP-1, LP-3 and LP-4 (0.9% NaCl solution, pH 7.4) and free compounds 1, 3 and 4 (DMSO solution) at increasing concentrations (0.1 μM, 1.0 μM, 10 μM and 50 μM). IC50 determination for LP-2 and compound 2 was performed testing the following concentrations as well: 0.01 μM, 0.05 μM, 0.5 μM and 5 μM. The cultures were maintained at 37 °C in 5% v/v CO2 for 24, 48 and 72 h. Cell number and viability were evaluated using the Bürker chamber, after treatment with Trypan Blue. IC50 was calculated by GraphPad Prism 6.0 software using the best fitting sigmoid curve.

[2] = design: method as in PMID 25469771, PMID 21050441, PMID 21856155; details: cited from earlier work; for PAMPA: pH 7.4, 5 hours, room temperature; for MR (Membrane Retention): percentage of compound unable to reach the acceptor compartment
[3] = design: method as in PMID 25469771, PMID 21050441, PMID 21856155; details: percentage of unmodified drug, human liver microsomes, 37 °C, 60 min; cited from earlier work
[4] = H2O, 20 °C, 24 hrs; cited from earlier work
Src = biological target: Src; design: method as in PMID 25469771, PMID 21050441, PMID 21856155; details: cited from earlier work

drug loading [1]	SMILES	IC50 (SH-SY5Y NB cells; 24 h, read-out: IC50 24 h) [µM]	IC50 (SH-SY5Y NB cells; 48 h, read-out: IC50 48 h) [µM]	IC50 (SH-SY5Y NB cells; 72 h, read-out: IC50 72 h) [µM]	PAMPA [2]	MR (Membrane Retention) [2] [%]	Metabolic Stability [3] [%]	Aqueous Solubility [4]	Ki (Src) [µM]
around 6%	CSc1nc(NCc2ccccc2)c2cnn(CC(Cl)c3ccccc3)c2n1 (stereo not shown) [Compound 1]	21.8 ± 1.7	16.5 ± 1.67	13.5 ± 2	3.98 10^−6 cm^2/sec	46.8	95.8	0,21 μg/mL	
50%	ClC(Cn1ncc2c(Nc3cccc(Br)c3)nc(SCCN3CCOCC3)nc21)c1ccccc1 (stereo not shown) [Compound 2]	12.6 ± 1.6	2.66 ± 0.015	2.28 ± 0.29			96.0		0.13
	CC(Cn1ncc2c(Nc3cccc(Cl)c3)nc(SCCN3CCOCC3)nc21)c1ccccc1 (stereo not shown) [Compound 3]	3.04 ± 0.09	2.65 ± 0.08	1.54 ± 1.07	5.51 10^−6 cm^2/sec	48.9	97.9	0,22 μg/mL	0.4

SMILES	drug loading [1]	IC50 (SH-SY5Y NB cells; 24 h, read-out: IC50 24 h) [µM]	IC50 (SH-SY5Y NB cells; 48 h, read-out: IC50 48 h) [µM]	IC50 (SH-SY5Y NB cells; 72 h, read-out: IC50 72 h) [µM]	PAMPA [2]	MR (Membrane Retention) [2] [%]	Metabolic Stability [3] [%]	Aqueous Solubility [4]	Ki (Src) [µM]
CC(C)Sc1nc(Nc2cccc(O)c2)c2cnn(CC(Cl)c3ccccc3)c2n1 (stereo not shown) [Compound 4]	50%	13.6 ± 0.94	10.1 ± 0.5	8.63 ± 0.75	4.53 10^−6 cm^2/sec	49.6	93.5	0,90 μg/mL	0.01
